Like-named read-outs stand apart in the source and are kept apart here.
Tests used:
[1] = Coronary blood flow and hemodynamics in conscious dogs; type: in vivo; details: for ED50: Canis lupus familiaris, read-out: ED50, increase in mean CBF
Procedure: Ten mongrel dogs (weighing 23-27 kg) were premedicated with Acepromazine (0.3 mg/kg im) and anesthetized with sodium pentobarbital (25 mg/kg) and then intubated and ventilated with room air. A thoracotomy was performed in the left fifth intercostal space using sterile surgical techniques. A Tygon catheter (Cardiovascular Instruments, Inc.) was placed in the descending thoracic aorta for the measurements of blood pressure. A solid-state pressure gauge (P6.5, Konisberg Instrument, Inc) was placed in the apex of the left ventricle for the measurement of the left ventricular systolic pressure (LVSP) and calculation of first derivative of left ventricular pressure (LV dP/dt). A Doppler transducer (Craig Hartley) was placed on the left circumflex coronary artery for measurement of CBF. An hydraulic coronary occluder (In Vivo Metric, Inc) was implanted in 4 dogs around the left circumflex coronary artery. The chest was closed in layers and the catheters and wires were run subcutaneously and exited in the interscapular area. The dogs were allowed 10 to 14 days to recover fully from the surgery and were trained to lie on a laboratory table. The protocols were approved by the Institutional Animal Care and Use Committee of New York Medical College and conform to the “Guiding Principles for the use and Care of Laboratory Animals” of the National Institute of Health and the American Physiology Society.
Arterial pressure was measured by connecting the previously implanted catheter to a strain-gauge transducer (P231D, Statham) and mean arterial pressure (MAP) was derived using 2-Hz low-pass filter. […] Left circumflex CBF was measured using a pulsed Doppler flowmeter (System 6, Triton technology), and mean CBF was derived using a 2-Hz low-pass filter. Mean CR was calculated as the quotient of MAP and CBF. Heart rate was monitored from the pressure pulse interval using a cardiotachometer (Beckman Instruments). The lead-2 of the electrocardiogram was recorded during the experiments in order to examine the alterations in the AV nodal conduction (PR interval). All signals were recorded on a direct-writing oscillograph (Gould 2800).
Hemodynamics were measured before, during and after each dose. Following each dose hemodynamics were allowed to return to baseline before the administration of the next dose. Changes in heart rate, blood pressure, CBF, and ECG were recorded.
Hemodynamic results are expressed as mean±SEM. […] Because no statistical differences were found among the baseline values between each dose for each parameter measure, the first baseline registered during each experiment was used as the control value.

A1 adenosine receptor = target: T1, A1 adenosine receptor (Rattus norvegicus, UniProt P25099); assay: A-V nodal conduction time (negative dromotropic effect) in isolated rat hearts
T1 construct: Effect of concentration on AV conduction time and coronary conductance in isolated rat hearts; tissue Simonsen Laboratories (Gilroy, Calif.); host or cells: isolated perfused rat heart (Sprague Dawley)
T1 sequence (P25099 1-326): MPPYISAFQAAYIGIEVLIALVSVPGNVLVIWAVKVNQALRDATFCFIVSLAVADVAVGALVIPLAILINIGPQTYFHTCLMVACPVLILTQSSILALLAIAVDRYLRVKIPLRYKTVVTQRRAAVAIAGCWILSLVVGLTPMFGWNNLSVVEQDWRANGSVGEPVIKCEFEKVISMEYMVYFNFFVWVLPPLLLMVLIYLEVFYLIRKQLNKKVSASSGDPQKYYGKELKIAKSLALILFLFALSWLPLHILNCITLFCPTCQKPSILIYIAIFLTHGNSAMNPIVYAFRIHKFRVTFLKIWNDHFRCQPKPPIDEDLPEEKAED

[2] = target: T2, human A1 adenosine receptors (Homo sapiens, UniProt P30542); assay: Competitive radioligand binding, [3H]CPX, CHO-hA1AdoR membranes; details: for Ki: [3H]CPX; for affinity for the A1 receptor expressed by CHO-K1 cells: in words
T2 construct: expressed in transfected cells
T2 sequence (P30542 1-326): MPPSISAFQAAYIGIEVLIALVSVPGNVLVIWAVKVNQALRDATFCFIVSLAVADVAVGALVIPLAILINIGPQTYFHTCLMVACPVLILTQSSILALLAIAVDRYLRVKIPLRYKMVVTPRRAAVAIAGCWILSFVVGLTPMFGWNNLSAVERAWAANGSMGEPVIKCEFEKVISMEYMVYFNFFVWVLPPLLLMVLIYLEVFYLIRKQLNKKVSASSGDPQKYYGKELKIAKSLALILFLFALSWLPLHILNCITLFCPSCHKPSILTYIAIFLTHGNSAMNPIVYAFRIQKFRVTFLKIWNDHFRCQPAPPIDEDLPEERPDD
Procedure: The cell suspensions were homogenized and centrifuged at 48,000g for 15 minutes. The pellets were washed three times by re-suspension in ice-cold Tris-HCl buffer and centrifugation. The final pellet was re-suspended in Tris-HCl, aliquoted and frozen at −80° C. until used for receptor binding assays.

[3] = target: A2A adenosine receptors (PC12 cells) (Rattus norvegicus, UniProt P30543); assay: cAMP accumulation in PC12 cells
Procedure: Effects of adenosine receptor agonists on cAMP content in intact PC12 cells. […] Cyclic AMP levels were determined as described under “Methods”. Values represent mean±SEM of results of triplicate samples from three experiments. […] Values represent mean±SEM of triplicate determinants from one representative experiment.
Briefly, PC12 cells were rinsed three times with Hanks' balanced saline solution (HBSS), detached using a cell lifter, and pelleted by centrifugation at 500 g for 5 minutes. Aliquots of the cell suspension (0.1 to 0.2 mg protein) were placed in microfuge tubes with 250 μL of HBSS containing rolipram (50 μmol/L) to inhibit phosphodiesterases that degrade cAMP_and warmed to 37° C. Appropriate drugs were added to the cell suspensions, and incubations were allowed to continue for 10 minutes. Tubes were placed in a boiling water bath for 5 minutes to terminate the incubation. The samples were then cooled to room temperature, diluted by the addition of 1 mL of 10 mmol/L Tris-HCl buffer at pH 7.4, and then centrifuged for 2 minutes at 13000 g.
The samples were then incubated at 4° C. for 16 hours. At the end of the incubation, 70 μL of a 50% (wt/vol) hydroxyapatite suspension was added to each tube. The suspensions were gently agitated and then incubated for 10 minutes at 4° C. Antibody-bound radioactivity adsorbed to hydroxyapatite was collected onto glass fiber filters by vacuum filtration using a Brandel cell harvester. Radioactivity retained by the filter was counted in a gamma counter. […] The amount of cAMP present in samples was calculated based on a standard curve using known amounts of cAMP.

[4] = target: T3, human A2B adenosine receptors (Homo sapiens, UniProt P29275); assay: cAMP accumulation in HEK-293 cells expressing A2B adenosine receptors; type: cell-based; details: up to 100 μM
T3 construct: expressed in transfected cells
T3 sequence (P29275 1-332): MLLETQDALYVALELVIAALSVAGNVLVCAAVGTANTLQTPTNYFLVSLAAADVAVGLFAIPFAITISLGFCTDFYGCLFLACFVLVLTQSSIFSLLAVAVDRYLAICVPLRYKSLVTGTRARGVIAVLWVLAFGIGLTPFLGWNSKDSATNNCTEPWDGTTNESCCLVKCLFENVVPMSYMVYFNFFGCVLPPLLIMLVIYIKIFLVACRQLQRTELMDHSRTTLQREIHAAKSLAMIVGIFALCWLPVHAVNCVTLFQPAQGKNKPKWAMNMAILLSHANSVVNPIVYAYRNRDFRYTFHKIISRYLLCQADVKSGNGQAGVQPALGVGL

[5] = tested on: rat isolated perfused heart; assay: Reversal time of coronary vasodilation in rat isolated perfused hearts; details: bolus; for t0.5, time to 50% reversal of the increase in coronary conductance / t0.9, time to 90% reversal of the increase in coronary conductance: rat isolated perfused heart;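 as to t0.5, time to 50% reversal of the increase in coronary conductance: each agonist bolused at its minimal concentration giving equal maximal coronary conductance rise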;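 as to t0.9, time to 90% reversal of the increase in coronary conductance: each agonist bolused at its minimal concentration giving equal maximal coronary conductance rise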
Procedure: FIG. 10. Reversal of effect of agonist stimulation on CC. […] CC was measured at 8, 16 and 24 minutes after administration (FIG. 10A). […] R and N are the correlation coefficient and number of agonists, respectively.
The relationship between the affinity of agonists for the A2A receptor and the rate of reversal of agonist-mediated responses (coronary vasodilation in heart and cAMP accumulation in PC12 cells) upon termination of drug administration were determined. […] The duration of the coronary vasodilation in isolated rat hearts caused by adenosine, the CVT compounds, and other agonists measured as the time to 50% and 90% (t0.5 and t0.9, respectively) reversal of the increases in coronary conductance after termination of drug administration are summarized in Table 4.

[6] = read-out: pKi ± SEM, CHO-hA1AdoR (converted)

A2A adenosine receptors (PC12 cells), sequence (P30543 whole entry): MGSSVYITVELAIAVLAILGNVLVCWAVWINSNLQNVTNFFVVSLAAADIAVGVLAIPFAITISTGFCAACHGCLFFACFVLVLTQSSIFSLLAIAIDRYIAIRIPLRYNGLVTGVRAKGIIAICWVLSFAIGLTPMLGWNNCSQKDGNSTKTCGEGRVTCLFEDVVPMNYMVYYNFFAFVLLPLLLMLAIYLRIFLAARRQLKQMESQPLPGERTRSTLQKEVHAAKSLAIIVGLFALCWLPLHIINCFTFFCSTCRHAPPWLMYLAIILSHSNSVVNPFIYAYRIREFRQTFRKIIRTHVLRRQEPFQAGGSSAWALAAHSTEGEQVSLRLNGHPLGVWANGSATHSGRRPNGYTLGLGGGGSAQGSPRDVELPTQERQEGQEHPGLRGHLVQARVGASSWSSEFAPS

Row | Structure (SMILES) | ED50 ([1]; IV bolus, conscious dogs) | effect on A-V nodal conduction time (A1 adenosine receptor) | Ki ([2]; read-out: Ki, CHO-hA1AdoR) | Ki [2, 6] | affinity for the A1 receptor expressed by CHO-K1 cells [2] | EC50 [3] | effect on cellular cAMP content [4] | t0.5, time to 50% reversal of the increase in coronary conductance [5] | t0.9, time to 90% reversal of the increase in coronary conductance [5] | also measured
1 | CNC(=O)c1cnn(-c2nc(N)c3ncn(C4O[C@@H](CO)[C@H](O)[C@@H]4O)c3n2)c1 (some centres unmarked) [CVT-3146] | 0.00034 ± 8e-05 mg/kg | did not prolong A-V nodal conduction time | > 16.5 µM | 25.7 µM | relatively low affinities | 0.291 µM | neither CVT-3033 nor CVT-3146 had any detectable effects |  |  | maximal decrease in CR ([1]; 2.5 μg/kg iv, conscious dogs): 73±2%; increase in dP/dt ([1]; 2.5 μg/kg, conscious dogs): 39±7%; maximal decrease in CR ([1]; 5 μg/kg iv, conscious dogs): 75±2%; maximal increase in mean CBF from baseline ([1]; IV bolus, conscious dogs, baseline 45±3 ml/min): 154 ± 16 mL/min; changes in LVSP ([1]; increasing doses, conscious dogs (data not shown)): did not cause significant changes in LVSP
2 | CCCCCn1cc(-c2nc(N)c3ncn(C4O[C@@H](CO)[C@H](O)[C@@H]4O)c3n2)cn1 (some centres unmarked) [CVT-3033] |  | did not prolong A-V nodal conduction time | 5.84 µM | 5.75 µM | relatively low affinities | 0.487 µM | neither CVT-3033 nor CVT-3146 had any detectable effects | 3.4 ± 0.5 min | 8.4 ± 2.2 min | shift to the right of the CGS21680 concentration-response curve ([3]; CVT-3033 1 μM, PC12 cells): ~5 fold; Emax ([3]; PC-12, read-out: maximal response of cAMP accumulation, % of that induced by CGS21680): 63%; agonist behaviour in PC12 cells ([3]; cAMP accumulation): partial A2A agonists
3 | Nc1ncnc2c1ncn2[C@@H]1O[C@H](CO)[C@@H](O)[C@H]1O [Adenosine, adenosine, reference compound] | 0.051 ± 0.015 mg/kg |  |  |  |  |  |  | 1.6 ± 0.1 min | 5.6 ± 0.8 min | increase in LVSP ([1]; 67 μg/kg, conscious dogs): 12±3%; increase in LVSP ([1]; 134 μg/kg, conscious dogs): 12±3%; maximal decrease in CR ([1]; 267 μg/kg iv, conscious dogs): 73±1%; increase in LVSP ([1]; 267 μg/kg, conscious dogs): 18±6%; increase in dP/dt ([1]; 267 μg/kg, conscious dogs): 29±7%; duration of the effect on coronary conductance (rank among agonists) ([5]; isolated rat hearts, FIG. 10): shortest

Reference: patent publication US20050175535A1 (CV Therapeutics, Inc., priority 2000, published 2005)
